Laboratory results from US10259777B2, “(E)-3-(3,4-dihydroxyphenyl)-N-(prop-2-yn-1-yl)acrylamide for treatment of neurodegenerative diseases” (THE UNIVERSITY OF HONG KONG, priority 2015, dated 2019).

Columns and labels:
Type in all cases: cell-based, rat
Nrf2 = Nrf2 translocation into cell nuclei, Western blot and immunostaining
Protocol: Direct modification of Keap1 caused the dissociation of Nrf2-Keap1 complex. Based on Western blot analysis of the nuclear proteins and immunostaining of intracellular Nrf2, PACA induced the translocation of Nrf2 into the cell nuclei in a concentration-dependent manner. (A) Western blot analysis of cytosolic and nuclear Nrf2. Following PACA treatment, the cytosolic and nuclear proteins were isolated and analyzed by Western blotting for Nrf2 expression. GAPDH and lamin b were analyzed as the control of protein loading. (B) Immunostaining of the intracellular Nrf2. Following PACA treatment, the cells were probed with Nrf2 antibody, and subsequently visualized with […] secondary antibody. […] The images were captured under a fluorescence microscope. […]
Direct modification of Keap1 caused the dissociation of Nrf2-Keap1 complex. […] For Western blot analysis, the cellular proteins were separated into the cytosolic and nuclear fractions, and analyzed by Western blotting with Nrf2 antibodies. GAPDH was used as the control of protein loading, whereas Lamin B was detected as the nuclear biomarker. […] For immunostaining of the intracellular Nrf2, on the other hand, PC12 cells were sequentially probed with rabbit anti-Nrf2 antibody and detected by Alexa Fluor 594-conjugated goat anti-rabbit IgG antibodies PACA. The images were captured under a Zeiss fluorescence microscope.

PC12 cells [1] = test: 6-OHDA-induced nitric oxide production, DAF-FM Diacetate staining; settings: 6-OHDA with PACA 5, 10, 20 and 50 μM
Protocol: After the treatment with 6-OHDA alone or in combination with PACA at different concentrations, PC12 cells were stained with a fluorescent probe dihydroethidium (DHE) for the production of superoxide anion (A & B) and another fluorescent probe DAF-FM Diacetate for the production of nitric oxide ([…]), respectively. (A) Representative images of DHE-stained cells. 6-OHDA, 200 μM; PACA, 50 (B) PACA inhibited 6-OHDA-induced formation of superoxide ions. PC12 cells were treated with 6-OHDA alone or in combination with PACA for 6 h and subsequently stained with a probe DHE. The images were captured under a fluorescence microscope. The fluorescence was determined by ImageJ software. (C) Representative images of DAF-FM DA-stained cells. 6-OHDA, 200 μM; PACA, 50 μM. (D) PACA inhibited 6-OHDA-induced NO production. PC12 cells were treated with 6-OHDA alone or in combination with PACA for 6 h and subsequently stained with a probe DAF-FM DA. The images were captured under a fluorescence microscope. The fluorescence was determined by ImageJ software.
PC12 cells were treated with 6-OHDA alone or in combination with PACA at the concentrations of 5, 10, 20 and 50 μM. At the end of treatment, PC12 cells were then stained with a fluorescent probe dihydroethidium (DHE) for the production of superoxide anion and another fluorescent probe DAF-FM Diacetate for the production of nitric oxide, respectively.

PC12 cells [2] = test: 6-OHDA-induced neurotoxicity in PC12 cells, MTT cell viability; settings: 6-OHDA with or without PACA, 24 hours
Protocol: Neurotoxin 6-hydroxydopamine (6-OHDA) is widely used to induce the cell model of human Parkinsonism. PC12 cells were treated with 6-OHDA with or without PACA for 24-hours, the cell viability was assessed by the colorimetric MTT assay. The relative cell viability was plotted against the concentrations of PACA. On the other hand, primary midbrain neurons were isolated from 17-day-old Sprague Dawley (SD) rat embryos. The midbrain neurons were treated with 6-OHDA with or without PACA for 12-hours, the cell viability was assessed by the colorimetric MTT assay. Alternatively, the neurons were stained with 5 μM of Hoechst 33342 and 1 μM of PI in the differentiation medium at 37° C. for 30 min. The images were captured on a Zeiss fluorescence microscope. (A) MTT assay of the cell viability in PC 12 cells. […] PI-positive and Hoechst 33342-stained neurons were counted under a fluorescence microscope. […]
Neurotoxin 6-hydroxydopamine (6-OHDA) is widely used to induce the cell model of human Parkinsonism. PC12 cells were treated with 6-OHDA with or without PACA for 24-hours, the cell viability was assessed by the colorimetric MTT assay. […] The midbrain neurons were treated with 6-OHDA with or without PACA for 12-hours, the cell viability was assessed by the colorimetric MTT assay. […] The images were captured on a Zeiss fluorescence microscope.

C#CCNC(=O)/C=C/c1ccc(O)c(O)c1 [PACA, (E)-3-(3,4-dihydroxyphenyl)-N-(prop-2-yn-1-yl)acrylamide]
levels of nuclear Nrf2 (Nrf2; PACA at different concentrations, Western blot of nuclear fraction): significantly increased the levels of nuclear Nrf2 in a concentration-dependent manner | intracellular Nrf2 localization by immunostaining (Nrf2; PC12 cells, anti-Nrf2 immunostaining): promoted the accumulation of Nrf2 in the cell nucleus | 6-OHDA-induced formation of NO (PC12 cells [1]): significantly attenuated | 6-OHDA neurotoxicity in PC12 cells (PC12 cells [2]): attenuated 6-hydroxydopamine (6-OHDA) neurotoxicity
